B1: Amuc_1409: SEQ ID NO: 15, functional fragment obtained by eliminating the leader sequence from SEQ ID NO: 14; protein derived from Akkermansia muciniphila (protein)
chain: IPESSVPAAAVSSIKGAYPNAGPIEWDSEMHGMERIYEAEFRINGFQFDVKIAPDGKIVRIKEEIAASSLPEAVRASVLKRYPGCRIKEAEKITEGELVRYKVEVADSRDDYDVLIAPDGNILHVDR
modifications: Amuc_1409_fragment
notes: protein derived from Akkermansia muciniphila

Key:
[1] = test system: ConA-induced acute hepatitis model; assay: ConA-induced acute hepatitis model; type: in vivo, C57BL/6J mice; settings: vs PBS buffer group; for ALT / AST: plasma, 9 hours after ConA
Method: An acute hepatitis model was induced by dissolving ConA (concanavalin A) in PBS buffer (phosphate buffered saline) at 1.5 mg/mL and injecting the solution into 8-week-old specific pathogen free (SPF) male C57BL/6J mice through the tail vein in proportion to the mouse body weight based on 100 μL/10 g. Amuc_1409 or PEP001, PEP002, PEP003, PEP004, or PEP005 was dissolved in PBS buffer at a concentration of 6.7 μM from 3 days before ConA administration, and PEP007, PEP008, PEP009, or PEP010 was dissolved in PBS buffer at a concentration of 0.2 μg/150 μL from 3 days before ConA administration, and Amuc_1409 was injected into the mouse peritoneal cavity once a day at the same time by 210 μL and PEP001 to PEP010 by 150 μL, and intraperitoneally injected additionally one time 30 minutes before ConA injection, and the experiment was terminated 9 hours after ConA intravenous injection. Into the control group, PBS buffer was intravenously injected in the same manner. At the end of the experiment 9 hours after ConA intravenous injection, blood was collected from the orbital venous plexus using a heparin-treated capillary tube, and the collected blood was immediately centrifuged at 10,000 rpm (4° C.) for 10 minutes to separate plasma and then subjected to the analysis of alanine aminotransferase (ALT) and aspartate aminotransferase (AST), which are indicators of liver damage, using an automatic blood biochemical analyzer (Beckman Coulter AU480 automatic analyzer, Beckman Coulter). The liver was harvested, a part of the liver was fixed in 10% NBF at room temperature for 24 hours or more and then embedded in paraffin to prepare a 5 μm-thick section, and the section was stained with hematoxylin and eosin (H&E).

[2] = test system: TPA-induced dermatitis model; assay: TPA-induced dermatitis (ear) model; type: in vivo, C57BL/6J mice; settings: vs PBS buffer group; for ear thickness / ear weight / erythema and swelling of the ear (macro photograph): 26 hours after TPA application
Method: As a dermatitis model, one day before sample application, both ears of 8-week-old male C57BL/6J mice were shaved, 2.5 μg of TPA (12-otetrade-canoyl-phorbol-13-acetate) dissolved in 25 μL acetone was applied to the right ear of the mouse to induce skin swelling and inflammation, and the left ear was coated with 25 μL of acetone, which is a TPA solvent, and used as a negative control. From 3 days before TPA application, Amuc_1409 or PEP001 to PEP013 were each dissolved in PBS buffer at a concentration of 6.7 μM, and then injected into the abdominal cavity of mice by 150 μL per animal once a day at the same time. On day 3 (0 days) after administration of the peptide, the peptide was injected intraperitoneally one time 30 minutes before TPA application, and the drug was additionally injected intraperitoneally 3 hours after TPA injection. Into the control group, the same volume of PBS buffer was intraperitoneally injected, and the experiment was terminated 26 hours after TPA application. 26 hours after TPA application, the ear thickness was measured and photographs of both ears for each test group were taken in order to examine the degree of swelling and inflammation relief in the ears. After the test animal was sacrificed, the weight per area of the ear was measured, the ears of mice were fixed in 10% neutral buffered formalin at room temperature for 24 hours or more, and then embedded in paraffin to prepare 5 μm-thick sections, and the sections were stained with hematoxylin and eosin (H&E). The degrees of swelling of the ear and inflammatory cell infiltration were examined by observing the H&E-stained tissue section under an optical microscope.

| Molecule | ALT [1] | AST [1] | ear thickness [2] | ear weight [2] | erythema and swelling of the ear (macro photograph) [2] | inflammatory cells infiltration into the liver and necrosis in the liver parenchyma (H&E) [1] | ear tissue swelling and inflammatory cell infiltration (H&E) [2] |
| --- | --- | --- | --- | --- | --- | --- | --- |
| AVS (AVSSIKGAY) [PEP004] | significantly decreased | tended to decrease | significantly decreased | significantly decreased | significantly reduced | – | – |
| AVSSI (PEP002) | significantly decreased | tended to decrease | significantly decreased | significantly decreased | significantly reduced | – | – |
| AVSSIKGAY (PEP001) | decreased close to a significant level | decreased close to a significant level | significantly decreased | significantly decreased | significantly reduced | – | – |
| GAY [PEP005] | decreased close to a significant level | tended to decrease | significantly decreased | significantly decreased | significantly reduced | – | – |
| IGAY (PEP008) | tended to decrease | – | – | – | – | – | – |
| KGAY (PEP003) | significantly decreased | tended to decrease | significantly decreased | significantly decreased | significantly reduced | – | – |
| RGAY (PEP007) | significantly decreased | tended to decrease | – | – | – | – | – |
| SGAY (PEP009) | tended to decrease | tended to decrease | – | – | – | – | – |
| VGAY (PEP010) | significantly decreased | decreased close to a significant level | – | – | – | – | – |
| B1 | significantly decreased | significantly decreased | tended to decrease | significantly decreased | reduced overall | markedly reduced | significantly reduced |
